In article PMC8398451, “Molecular Engineering of Curcumin, an Active Constituent of Curcuma longa L. (Turmeric) of the Family Zingiberaceae with Improved Antiproliferative Activity” (Plants, 2021):
Where two headings read alike, the source gives them in different places.

How the values were obtained:
HCT-15 = experiment: NCI antiproliferative SRB assay, Colon Cancer panel; format: cell-based, Human
PC-3 = experiment: NCI antiproliferative SRB assay, Prostate Cancer panel; format: cell-based, Human
CAKI-1 = experiment: NCI antiproliferative SRB assay, Renal Cancer panel; format: cell-based, Human
[1] = tested on: Ovarian Cancer cell line panel; experiment: NCI antiproliferative assay, panel summary; format: cell-based, Human
HOP-62 = experiment: NCI antiproliferative SRB assay, Non-Small Cell Lung Cancer panel; format: cell-based, Human
SF-268 = experiment: NCI antiproliferative SRB assay, CNS Cancer panel; format: cell-based, Human
[2] = tested on: CNS Cancer cell line panel; experiment: NCI antiproliferative assay, panel summary; format: cell-based, Human
MDA-MB-231 = experiment: NCI antiproliferative SRB assay, Breast Cancer panel; format: cell-based
HT29 = experiment: NCI antiproliferative SRB assay, Colon Cancer panel; format: cell-based, Human
SF-539 = experiment: NCI antiproliferative SRB assay, CNS Cancer panel; format: cell-based, Human
RXF 393 = experiment: NCI antiproliferative SRB assay, Renal Cancer panel; format: cell-based, Human
OVCAR-5 = experiment: NCI antiproliferative SRB assay, Ovarian Cancer panel; format: cell-based, Human
NCI-H226 = experiment: NCI antiproliferative SRB assay, Non-Small Cell Lung Cancer panel; format: cell-based, Human
T-47D = experiment: NCI antiproliferative SRB assay, Breast Cancer panel; format: cell-based, Human
MOLT-4 = experiment: NCI antiproliferative SRB assay, Leukemia panel; format: cell-based, Human
ACHN = experiment: NCI antiproliferative SRB assay, Renal Cancer panel; format: cell-based, Human
SN 12C = experiment: as above; format: cell-based, Human
HS 578T = experiment: NCI antiproliferative SRB assay, Breast Cancer panel; format: cell-based, Human
Leukemia cell line panel = experiment: NCI antiproliferative assay, panel summary; format: cell-based, Human; settings: for GI50: Homo sapiens
MCF7 = experiment: NCI antiproliferative SRB assay, Breast Cancer panel; format: cell-based, Human
UO-31 = experiment: NCI antiproliferative SRB assay, Renal Cancer panel; format: cell-based, Human
MDA-MB-435 = experiment: NCI antiproliferative SRB assay, Melanoma panel; format: cell-based
SK-MEL-2 = experiment: NCI antiproliferative SRB assay, Melanoma panel; format: cell-based, Human
UACC-62 = experiment: NCI antiproliferative SRB assay, Melanoma panel; format: cell-based, Human
DU-145 = experiment: NCI antiproliferative SRB assay, Prostate Cancer panel; format: cell-based, Human
BT-549 = experiment: NCI antiproliferative SRB assay, Breast Cancer panel; format: cell-based, Human
U251 = experiment: NCI antiproliferative SRB assay, CNS Cancer panel; format: cell-based
CCRF-CEM = experiment: NCI antiproliferative SRB assay, Leukemia panel; format: cell-based, Human
RPMI-8226 = experiment: NCI antiproliferative SRB assay, Leukemia panel; format: cell-based, Human
M14 = experiment: NCI antiproliferative SRB assay, Melanoma panel; format: cell-based, Human
[3] = tested on: Breast Cancer cell line panel; experiment: NCI antiproliferative assay, panel summary; format: cell-based, Human
[4] = Homo sapiens, 5-dose 0.01-100 µM
[5] = Homo sapiens, 5-dose 0.01-100 µM, read-out: LC50 (the source's name)
[6] = Homo sapiens, 5-dose assay, read-out: Sub Panel MID b (mean GI50 of panel)
[7] = Homo sapiens, T47D, 5-dose 0.01-100 µM

COc1ccc(NC(=O)n2nc(/C=C/c3ccc(O)c(OC)c3)cc2/C=C/c2ccc(O)c(OC)c2)cc1 [3b]
TGI (HCT-15; 5-dose 0.01-100 µM): >100 µM | GI50 (HCT-15; [4]): 2980 nM | CC50 (HCT-15; [5]): > 100 µM | GP (growth percent) (HCT-15; one dose 10 µM): 13.17 | TGI (PC-3; 5-dose 0.01-100 µM): >100 µM | GI50 (PC-3; [4]): 5.11 µM | CC50 (PC-3; [5]): > 100 µM | %GI (PC-3; one dose 10 µM): 71.57% | GP (growth percent) (PC-3; one dose 10 µM): 28.43 | TGI (CAKI-1; 5-dose 0.01-100 µM): >100 µM | GI50 (CAKI-1; [4]): 3.6 µM | CC50 (CAKI-1; [5]): > 100 µM | %GI (CAKI-1; one dose 10 µM): 61.94% | GP (growth percent) (CAKI-1; one dose 10 µM): 38.06 | Mean % GI ([1]; 10 µM): 60.11% | Selectivity Ratio (MID a:MID b) ([1]; 5-dose assay): 0.76 | GI50 [1, 6]: 6.46 µM | TGI (HOP-62; 5-dose 0.01-100 µM): 42.8 µM | GI50 (HOP-62; [4]): 3.65 µM | CC50 (HOP-62; [5]): > 100 µM | %GI (HOP-62; one dose 10 µM): 67.25% | GP (growth percent) (HOP-62; one dose 10 µM): 32.75 | TGI (SF-268; 5-dose 0.01-100 µM): 36.4 µM | GI50 (SF-268; [4]): 3.21 µM | CC50 (SF-268; [5]): > 100 µM | %GI (SF-268; one dose 10 µM): 58.19% | GP (growth percent) (SF-268; one dose 10 µM): 41.81 | Mean % GI ([2]; 10 µM): 67.06% | Selectivity Ratio (MID a:MID b) ([2]; 5-dose assay): 1.28 | GI50 [2, 6]: 3.83 µM | TGI (MDA-MB-231; 5-dose 0.01-100 µM): 83.5 µM | GI50 (MDA-MB-231; Homo sapiens): 4.94 µM | CC50 (MDA-MB-231; [5]): > 100 µM | %GI (MDA-MB-231; one dose 10 µM): 63.47% | GP (growth percent) (MDA-MB-231; one dose 10 µM): 36.53 | TGI (HT29; 5-dose 0.01-100 µM): 11.0 µM | GI50 (HT29; Homo sapiens, HT-29, 5-dose 0.01-100 µM): 3.52 µM | CC50 (HT29; Homo sapiens, HT-29, 5-dose 0.01-100 µM, read-out: LC50 (the source's name)): > 100 µM | %GI (HT29; one dose 10 µM): 68.74% | GP (growth percent) (HT29; one dose 10 µM): 31.26 | TGI (SF-539; 5-dose 0.01-100 µM): 13.6 µM | GI50 (SF-539; [4]): 2350 nM | CC50 (SF-539; [5]): > 100 µM | %GI (SF-539; one dose 10 µM): 93.28% | GP (growth percent) (SF-539; one dose 10 µM): 6.72 | TGI (RXF 393; 5-dose 0.01-100 µM): 8.87 µM | GI50 (RXF 393; [4]): 3.02 µM | CC50 (RXF 393; [5]): > 100 µM | %GI (RXF 393; one dose 10 µM): 76.99% | GP (growth percent) (RXF 393; one dose 10 µM): 23.01 | TGI (OVCAR-5; 5-dose 0.01-100 µM): 54.1 µM | GI50 (OVCAR-5; [4]): 18.8 µM | CC50 (OVCAR-5; [5]): > 100 µM | %GI (OVCAR-5; one dose 10 µM): 37.70% | GP (growth percent) (OVCAR-5; one dose 10 µM): 62.30 | TGI (NCI-H226; 5-dose 0.01-100 µM): 78.6 µM | GI50 (NCI-H226; [4]): 10.7 µM | CC50 (NCI-H226; [5]): > 100 µM | %GI (NCI-H226; one dose 10 µM): 12.85% | GP (growth percent) (NCI-H226; one dose 10 µM): 87.15 | TGI (T-47D; 5-dose 0.01-100 µM): 25.8 µM | GI50 (T-47D; [7]): 3.68 µM | LC50 (lethal concentration, 50% cell kill) (T-47D; [7]): > 100 µM | %GI (T-47D; one dose 10 µM): 65.17% | GP (growth percent) (T-47D; one dose 10 µM): 34.83 | TGI (MOLT-4; 5-dose 0.01-100 µM): 13.3 µM | GI50 (MOLT-4; [4]): 2870 nM | CC50 (MOLT-4; [5]): > 100 µM | %GI (MOLT-4; one dose 10 µM): 87.76% | GP (growth percent) (MOLT-4; one dose 10 µM): 12.24 | TGI (ACHN; 5-dose 0.01-100 µM): >100 µM | GI50 (ACHN; [4]): 4.18 µM | CC50 (ACHN; [5]): > 100 µM | %GI (ACHN; one dose 10 µM): 77.93% | GP (growth percent) (ACHN; one dose 10 µM): 26.03 | TGI (SN 12C; 5-dose 0.01-100 µM): 33.7 µM | GI50 (SN 12C; Homo sapiens, SN12C, 5-dose 0.01-100 µM): 3.05 µM | CC50 (SN 12C; Homo sapiens, SN12C, 5-dose 0.01-100 µM, read-out: LC50 (the source's name)): > 100 µM | %GI (SN 12C; one dose 10 µM): 68.55% | GP (growth percent) (SN 12C; one dose 10 µM): 31.45 | TGI (HS 578T; 5-dose 0.01-100 µM): 61.9 µM | GI50 (HS 578T; [4]): 6.77 µM | CC50 (HS 578T; [5]): > 100 µM | %GI (HS 578T; one dose 10 µM): 71.29% | GP (growth percent) (HS 578T; one dose 10 µM): 28.71 | Mean % GI (Leukemia cell line panel; 10 µM): 88.02% | Selectivity Ratio (MID a:MID b) (Leukemia cell line panel; 5-dose assay): 1.89 | GI50 (Leukemia cell line panel; 5-dose assay, read-out: GI50 values, range over the leukemia panel): 1520 to 3380 nM | GI50 (Leukemia cell line panel; 5-dose assay, read-out: Sub Panel MID b (mean GI50 of panel)): 2590 nM | TGI (MCF7; 5-dose 0.01-100 µM): 17.0 µM | GI50 (MCF7; [4]): 3.3 µM | CC50 (MCF7; [5]): > 100 µM | %GI (MCF7; one dose 10 µM): 84.37% | GP (growth percent) (MCF7; one dose 10 µM): 15.63 | TGI (UO-31; 5-dose 0.01-100 µM): 36.4 µM | GI50 (UO-31; [4]): 1520 nM | LC50 (50% lethal concentration) (UO-31; [4]): > 100 µM | %GI (UO-31; one dose 10 µM): 77.33% | GP (growth percent) (UO-31; one dose 10 µM): 22.67 | TGI (MDA-MB-435; 5-dose 0.01-100 µM): 4.68 µM | GI50 (MDA-MB-435; Homo sapiens): 1250 nM | CC50 (MDA-MB-435; [5]): > 100 µM | %GI (MDA-MB-435; one dose 10 µM): 136.25% | GP (growth percent) (MDA-MB-435; one dose 10 µM): −36.25 | TGI (SK-MEL-2; 5-dose 0.01-100 µM): 18.1 µM | GI50 (SK-MEL-2; [4]): 3.23 µM | CC50 (SK-MEL-2; [5]): > 100 µM | %GI (SK-MEL-2; one dose 10 µM): 78.62% | GP (growth percent) (SK-MEL-2; one dose 10 µM): 21.38 | TGI (UACC-62; 5-dose 0.01-100 µM): 6.91 µM | GI50 (UACC-62; [4]): 2140 nM | CC50 (UACC-62; [5]): > 100 µM | %GI (UACC-62; one dose 10 µM): 74.53% | GP (growth percent) (UACC-62; one dose 10 µM): 25.47 | TGI (DU-145; 5-dose 0.01-100 µM): 24.6 µM | GI50 (DU-145; [4]): 3.99 µM | CC50 (DU-145; [5]): > 100 µM | %GI (DU-145; one dose 10 µM): 72.77% | GP (growth percent) (DU-145; one dose 10 µM): 27.23 | TGI (BT-549; 5-dose 0.01-100 µM): 29.5 µM | GI50 (BT-549; [4]): 2490 nM | CC50 (BT-549; [5]): > 100 µM | %GI (BT-549; one dose 10 µM): 68.63% | GP (growth percent) (BT-549; one dose 10 µM): 31.37 | GI50 (U251; Homo sapiens, U-251): 3.55 µM | CC50 (U251; Homo sapiens, U-251, U251, 5-dose 0.01-100 µM, read-out: LC50 (the source's name)): > 100 µM | TGI (U251; U251, 5-dose 0.01-100 µM): 20.9 µM | %GI (U251; U251, one dose 10 µM): 73.97% | GP (growth percent) (U251; U251, one dose 10 µM): 26.03 | TGI (CCRF-CEM; 5-dose 0.01-100 µM): 32.7 µM | GI50 (CCRF-CEM; [4]): 2340 nM | CC50 (CCRF-CEM; [5]): > 100 µM | %GI (CCRF-CEM; one dose 10 µM): 88.23% | GP (growth percent) (CCRF-CEM; one dose 10 µM): 11.77 | TGI (RPMI-8226; 5-dose 0.01-100 µM): 29.2 µM | GI50 (RPMI-8226; [4]): 3.38 µM | CC50 (RPMI-8226; [5]): > 100 µM | %GI (RPMI-8226; one dose 10 µM): 78.70% | GP (growth percent) (RPMI-8226; one dose 10 µM): 21.30 | TGI (M14; 5-dose 0.01-100 µM): 41.5 µM | GI50 (M14; [4]): 3.15 µM | CC50 (M14; [5]): > 100 µM | %GI (M14; one dose 10 µM): 95.03% | GP (growth percent) (M14; one dose 10 µM): 4.97 | Mean % GI ([3]; 10 µM): 69.71% | Selectivity Ratio (MID a:MID b) ([3]; 5-dose assay): 1.19 | GI50 [3, 6]: 4.12 µM
